Structures can show the parent of a compound that is named as a salt.

Two compounds from US6852735B1, “Siastatin B derivatives having a glycosidase inhibitory activity and processes for producing the same” (Zaidan Hojin Biseibutsu Kagaku Kenkyu Kai, priority 1998, dated 2005) can be followed below.

In the case of `CC(=O)NC1NCC(CO)C(O)C1O` (stereo not drawn) (as salt: hydrochloride) [Formula (V), 3-decarboxy-4-epi-3-hydroxymethyl-siastain B], the melting point is 201 to 202 °C (dec.).
In turn, `O=C(N[C@H]1NC[C@H](CO)[C@@H](O)[C@@H]1O)C(F)(F)F` (as salt: hydrochloride) [Formula (X), 6-deacetamido-3-decarboxy-4-epi-3-hydroxymethyl-6-trifluoroacetamido-siastain B] had a melting point of 88 to 90 °C.
